Reference: patent US20060269924A1, “Modulation of telomere-initiated cell signaling” (TRUSTEES OF BOSTON UNIVERSITY, priority 2003, published 2006)
{P} = phosphate

How the values were obtained:
[1] = test system: cdk4^R24C R2F fibroblasts; assay: SA-β-Gal staining, cdk4^R24C R2F fibroblasts; assay type: cell-based, human; settings: 40 μM, 1 week
Experimental: FIG. 12a: Immunoblot analysis of p53DD and cdk4^R24C expression. Cells were collected for protein analysis by western blot using 30 μg total protein and probed for total p53 and cdk4. Lanes 1, 2, 3 and 4 contain protein samples from R2F, R2F (p53DD), R2F (cdk4^R24C) and R2F (p53DD/cdk4^R24C) fibroblasts, respective. β-actin was used as a loading control. FIG. 12b: Contribution of p53 and pRb pathways to T-oligo-induced SA-β-Gal activity. R2F fibroblasts and derived transductants were treated with diluent or 40 μM T-oligo for one week and then assayed for SA-β-Gal activity. FIG. 12c: Quantitative analysis of SA-β-Gal positive cells. Cells expressing SA-β-Gal activity were counted and presented as percentage of total cells in the cultures. Averages and standard deviations were calculated from 3 representative fields from each of 3 independent experiments.
R2F newborn dermal fibroblasts and derived p53DD, […] and p53DD/cdk4^R24C transductants (a generous gift from Dr. James G. Rheinwald of Harvard Medical School) lack a functional p53 pathway, pRb pathway, and both pathways respectively.
Cells were treated once with diluent alone, 40 μM T-oligo or 40 μM complementary oligo for 1 week without re-feeding. […]
Cells were treated with either diluent or 40 μM T-oligo for 1 week and then assessed for SA-β-Gal activity. […]

[2] = test system: human fibrosarcoma HT-1080 cells; assay: SA-β-Gal staining, HT-1080 cells; assay type: cell-based
Experimental: FIG. 13a: Exposure to T-oligo increases SA-β-Gal activity. HT-1080 cells were treated for 4 days with diluent alone or 40 μM T-oligo or the complementary control oligo, then stained and assayed for SA-β-Gal activity. FIG. 13b: Quantitative analysis of SA-β-Gal positive cells. Cells expressing SA-β-Gal activity were counted and presented as percentage of total cells in the cultures. Averages and standard deviations were calculated from 3 representative fields from each of 3 independent experiments. FIG. 13c: Effect of T-oligo on cell proliferation. Cells were treated for 4 days as in FIG. 12 and assayed for DNA synthesis by BrdU incorporation. FIG. 13d: Quantitative analysis of BrdU incorporation. Dark black nuclei indicate BrdU incorporated into nuclear DNA. BrdU positive cells were calculated and presented as percentage of total cells in the cultures. Averages and standard deviations were calculated from 3 representative fields from each of 3 independent experiments. FIG. 13e: Effect of T-oligo on pRb phosphorylation. Cells were treated as in FIG. 13a and were then collected for protein analysis by western blot using 30 μg total protein and probed for pRb-ser780*, ser795* and ser807/811* (pRb phosphorylated at serine 780, serine 795 and serine 807/811 respectively). Lanes D, T and C contain protein samples from cells treated with diluent, T-oligo and complementary oligo respectively. β-actin was used as a loading control.
Parallel cultures were treated as described in FIG. 13a. Cells were then washed once with PBS and refed with complete medium without additional treatment for 24 hours or 48 hours. FIG. 14a: SA-β-Gal activity. Cells were stained for SA-β-Gal activity. […]
TRF2^DN has been reported to induce a senescent phenotype in human fibrosarcoma HT-1080 cells. To determine whether exposure to the telomere 3′ overhang DNA (T-oligo) also induces senescence in these cells, HT-1080 cells (American Type Culture Collection; Manassas, Va.) were treated with either diluent alone, T-oligo or the complementary oligo as a control, for 4 days and then assessed for SA-β-Gal activity. […]

pGTTAGGGTTAG (DNA, 5' {P}, backbone not given here; listed as Homo sapiens) [Oligonucleotide 11mer-1]
SA-β-Gal positive cells [1]: 60±5% | SA-β-Gal activity after removal of oligo ([2]; HT-1080, 4 days 40 μM, then 1 and 2 days fresh medium without oligonucleotide): increase in SA-β-Gal activity | SA-β-Gal positive cells ([2]; HT-1080 cells, 40 μM, 4 days): 80±7%
